{
  "source": "patent US20230108050A1",
  "about": "“CXCL8 (INTERLEUKIN-8) ACTIVITY INHIBITOR AND CORTICOSTEROID COMBINATION AND PHARMACEUTICAL COMPOSITION AND USE THEREOF” (Dompe' farmaceutici SpA, priority 2020, published 2023)",
  "type_in_all_cases": "in vivo, BALB/c mice",
  "key": {"[1]": {"test_system": "Th17 glucocorticoid-insensitive asthma mouse model", "experiment": "Assessment of leukocyte content in the airways (BALF), Example 2a", "conditions": "DF2755A 10 mg/kg oral twice a day, dexamethasone 5 mg/kg, BALF day 32", "experimental": "The investigation was conducted on the same mouse model as described in Example 1. In details, BALB/c mice received systemic immunization by subcutaneous injection of 20 μg of chicken egg ovalbumin (OVA grade V, >98% pure; Sigma, St Louis, Mo.) in saline, emulsified in 75 μL CFA (Sigma-Aldrich) at day 0. From day 28 after first immunization to day 31, mice were treated with PBS (vehicle), D[…], dexamethasone or D[…]/dexamethasone as described below, and 60 minutes later exposed to aerosolized ovalbumin (1% in saline) for 20 minutes per day. D[…] was administered orally by gavage twice a day so that one of the administrations was always 60 min before the OVA challenge. D[…] was diluted in saline 0.9% only at the time of use at room temperature and used at the dose of 10 mg/kg via the oral route. […] To assess leukocyte infiltration in the airways, bronchoalveolar lavage fluid (BALF) was performed. On day 32 after immunization, an incision was made in the trachea where a 1.7 mm outside diameter polyethylene catheter was inserted. Then, the airways were washed 2 times with 1 mL of phosphate buffer saline (PBS). The samples were centrifuged at 300×g for 10 minutes at 4° C., and 100 μL of 3% BSA in PBS was added to the pellet. A sample of this solution was used to assess the total leukocytes in the airways. The remaining solution was centrifuged at 300×g for 10 minutes at 4° C. and put on a histology glass slide to perform the differential counting of macrophages, lymphocytes, eosinophils and neutrophils using an optical microscopy. The supernatant was used to quantify the amount of total protein and the levels of chemokines and cytokines. The total protein assay was determined using a Bio-Rad protein assay Dye Reagent (Bio-Rad, USA) to measure possible protein leakage."}, "[2]": {"test_system": "Th17 glucocorticoid-insensitive asthma mouse model", "experiment": "Lung histology (H&E), Example 2e", "conditions": "DF2755A 10 mg/kg oral twice a day, dexamethasone 5 mg/kg, FIG. 9", "description": "After BALF, left lung was removed and fixed in formalin 4% in PBS (pH 7.4). The tissue was dehydrated gradually in ethanol, embedded in paraffin, cut into 4 μm sections and stained with Hematoxylin and Eosin. Photomicrographs were obtained at 400× magnification and were analyzed using the software Image Pro Plus (Image-Pro Plus 4.1, Media Cybernetics, USA)."}, "[3]": {"test_system": "Th17 glucocorticoid-insensitive asthma mouse model", "experiment": "Neutrophil myeloperoxidase and eosinophil peroxidase activity assays in lung, Example 2c", "conditions": "DF2755A 10 mg/kg oral twice a day, dexamethasone 5 mg/kg", "description": "From day 28 after first immunization to day 31, mice were treated with PBS (vehicle), DF2755A, dexamethasone or DF2755A/dexamethasone as described below, and 60 minutes later exposed to aerosolized ovalbumin (1% in saline) for 20 minutes per day. DF2755A was administered orally by gavage twice a day so that one of the administrations was always 60 min before the OVA challenge. DF2755A was diluted in saline 0.9% only at the time of use at room temperature and used at the dose of 10 mg/kg via the oral route. Dexamethasone was diluted in saline 0.9% only at the time of use at room temperature and given at the dose of 5 mg/kg. […]\nThe neutrophil myeloperoxidase (MPO) and eosinophil peroxidase (EPO) activities were measured as follows. […] The reaction was stopped by adding 100 μL of H2SO4 and quantified at 450 nm wave lengths in a spectrophotometer (VERSAmax, Molecular Devices, CA). […] After 30 minutes of incubation at room temperature, the reaction was stopped by adding 50 μL of H2SO4 1M and quantified at 492 nm in spectrophotometer."}, "[4]": {"test_system": "Th17 glucocorticoid-insensitive asthma mouse model", "experiment": "Assessment of pulmonary mechanics, Example 2d", "conditions": "DF2755A 10 mg/kg oral twice a day, dexamethasone 5 mg/kg; 24 h after the last challenge; FIG. 8", "experimental": "(§1) The investigation was conducted on the same mouse model as described in Example 1. In details, BALB/c mice received systemic immunization by subcutaneous injection of 20 μg of chicken egg ovalbumin (OVA grade V, >98% pure; Sigma, St Louis, Mo.) in saline, emulsified in 75 μL CFA (Sigma-Aldrich) at day 0.\n(§2) From day 28 after first immunization to day 31, mice were treated with PBS (vehicle), DF2755A, dexamethasone or DF2755A/dexamethasone as described below, and 60 minutes later exposed to aerosolized ovalbumin (1% in saline) for 20 minutes per day. DF2755A was administered orally by gavage twice a day so that one of the administrations was always 60 min before the OVA challenge. DF2755A was diluted in saline 0.9% only at the time of use at room temperature and used at the dose of 10 mg/kg via the oral route. Dexamethasone was diluted in saline 0.9% only at the time of use at room temperature and given at the dose of 5 mg/kg.\nMice were anesthetized with a subcutaneous injection of ketamine and xylazine (130 mg/Kg ketamine and 8.5 mg/Kg xylazine) to maintain spontaneous breathing under anesthesia. […] Under mechanical respiration the Dynamic Compliance (Cdyn) and Lung Resistance (RI) were determined by Resistance and Compliance RC test. […]"}, "[5]": {"test_system": "Th17 glucocorticoid-insensitive asthma mouse model", "experiment": "Chemokine and cytokine analysis in lung (ELISA), Example 2b", "conditions": "DF2755A 10 mg/kg oral twice a day, dexamethasone 5 mg/kg, lung supernatant ELISA", "experimental": "as §1, §2\nAfter BALF, the right lung was removed and a sample of 100 mg was homogenized in 1 mL of PBS (0.4 M NaCl and 10 mM of NaPO4) containing anti-proteases (0.1 mM phenylmethylsulfonyl fluoride, 0.1 mM benzetonium chloride, 10 mM EDTA and 20 KI aprotinin A). The homogenate was centrifuged 8,000×g for 10 minutes at 4° C. The supernatant was frozen for further ELISA assay and the pellet was frozen/thawed three times using liquid nitrogen to assess neutrophil myeloperoxidase (MPO) and eosinophil peroxidase (EPO) activities.\nThe chemokines CXCL1/KC, CCL2/MCP-1 and CCL24/Eotaxin2, and cytokines TNF-α, IFN-γ and IL-17A levels in supernatant of lung tissue were measured by ELISA. Results were expressed as levels of cytokines (pg/mL or ng/mL) per 0.1 g of wet tissue/mL of extraction buffer."}},
  "data": [
    {"compound": "C[C@H](C(=O)O)c1ccc(Nc2nc(C(F)(F)F)cs2)cc1", "note": "[DF2755A, (2S)-2-(4-{[4-(trifluoromethyl)-1,3-thiazol-2-yl]amino}phenyl) propanoic acid]", "values": [
      {"measurement": "neutrophil influx into the airways (BALF)", "setting": "[1]; day 28-31, FIG. 6B", "value": "able to reduce"},
      {"measurement": "eosinophil influx into the airways (BALF)", "setting": "[1]; FIG. 6C", "value": "able to reduce"},
      {"measurement": "lymphocytes influx into the airways (BALF)", "setting": "[1]; FIG. 6E", "value": "able to reduce"},
      {"measurement": "lung inflammation, accumulation of leukocytes in the lung tissue (histology, inflammatory score)", "setting": "[2]", "value": "effective in reducing accumulation of leukocytes"},
      {"measurement": "accumulation of neutrophils in the lungs (MPO activity)", "setting": "[3]; FIG. 6F", "value": "prevented the infiltration"},
      {"measurement": "infiltration of eosinophils in the lungs (EPO activity)", "setting": "[3]; FIG. 6G", "value": "prevented the infiltration"},
      {"measurement": "pulmonary function / pulmonary mechanics (pulmonary volumes and resistance)", "setting": "[4]", "value": "did not significantly increased pulmonary function"},
      {"measurement": "CXCL1 level in the lungs", "setting": "[5]; FIG. 7A", "value": "significantly reduced"},
      {"measurement": "CCL2 level in the lungs", "setting": "[5]; FIG. 7B", "value": "significantly reduced"},
      {"measurement": "CCL24 level in the lungs", "setting": "[5]; FIG. 7C", "value": "significantly reduced"},
      {"measurement": "IFN-γ level in the lungs", "setting": "[5]; FIG. 7D", "value": "not significant"},
      {"measurement": "IL-17 level in the lungs", "setting": "[5]; FIG. 7E", "value": "significantly reduced"},
      {"measurement": "TNF-α level in the lungs", "setting": "[5]; FIG. 7F", "value": "significantly reduced"}
    ]}
  ]
}
